According to US11667652B2, “MCL1 inhibitors” (Gilead Sciences, Inc., priority 2019, dated 2023):
pEC50, pIC50: −log10 of the molar value. Where two headings read alike, the source gives them in different places.

Assays:
MCL1/Bim = MCL1/Bim (Homo sapiens (Human), UniProt Q07820); experiment: MCL1/Bim Binding AlphaLISA Assay; settings: recombinant human 6xHis-MCL1 (171-327), biotinylated Bim peptide (51-76)
How it was run: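 AlphaLISA with 0.0625 nM human 6×His-MCL1 (171-327) and 0.0625 nM biotinylated Bim (51-76) peptide in 20 mM Hepes pH 7.5, 150 mM NaCl, 0.002% Brij 35, 1 mM DTT, 0.01% BSA. Compound preincubated with MCL1 1 h, Bim added 2 h, then acceptor and donor beads 1 h each; % inhibition versus DMSO and no-protein/peptide controls.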

SKBR3 cells = experiment: SKBR3 Cell Viability Assay; format: cell-based; settings: CellTiter Glo, read-out: MCL1 CV SKBR3 EC50
How it was run: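 SKBR3 cells (6,000/well, McCoy's 5A + 10% FBS) were added onto pre-spotted serial compound dilutions and incubated 72 h at 37° C, 5% CO2. Viability was read by CellTiter-Glo luminescence, with % inhibition normalised to DMSO (negative) and 10 μM puromycin (positive).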

[1] = Homo sapiens, SK-BR-3, 72 hours

Sequence of MCL1/Bim (Q07820 171-327): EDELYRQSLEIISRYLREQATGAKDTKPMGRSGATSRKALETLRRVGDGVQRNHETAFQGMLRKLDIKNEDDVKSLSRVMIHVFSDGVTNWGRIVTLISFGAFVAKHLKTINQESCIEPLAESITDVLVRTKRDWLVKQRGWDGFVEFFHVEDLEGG

Structure (SMILES)	pIC50 (MCL1/Bim)	pEC50 (SKBR3 cells; [1])	pEC50 (SKBR3 cells; 72 hours)
COc1nn(C)cc1C(=O)N[S@@]1(=O)=NC(=O)c2ccc3c(c2)N(C[C@@H]2CC[C@H]2[C@H](O)/C=C/C[C@H](C)C1)C[C@@]1(CCCc2cc(Cl)ccc21)CO3 [Example 39]	9.70	6.83	–
COc1nn(C)cc1C(=O)N[S@@]1(=O)=NC(=O)c2ccc3c(c2)N(C[C@@H]2CC[C@H]2[C@@H](OC)[C@H](OC)/C=C\[C@H](C)C1)C[C@@]1(CCCc2cc(Cl)ccc21)CO3 [Example 133]	9.19	5.86	–
COc1nn(C)cc1C(=O)N[S@@]1(=O)=NC(=O)c2ccc3c(c2)N(C[C@@H]2CC[C@H]2[C@](O)(CC(=O)N2CCN(C4COC4)CC2)/C=C/C[C@H](C)C1)C[C@@]1(CCCc2cc(Cl)ccc21)CO3 [Example 105]	9.95	–	6.79
CO[C@H]1/C=C/C[C@H](C)C[S@@](=O)(Nc2cnc(C#N)cn2)=NC(=O)c2ccc3c(c2)N(C[C@@H]2CC[C@H]21)C[C@@]1(CCCc2cc(Cl)ccc21)CO3 [Example 5]	9.23	5.38	–
CO[C@H]1/C=C/C[C@H](C)C[S@@](=O)(NC(=O)c2cc3n(c2)CCOC3)=NC(=O)c2ccc3c(c2)N(C[C@@H]2CC[C@H]21)C[C@]1(CO3)SCCc2cc(Cl)ccc21 [Example 179]	10.15	7.62	–
CO[C@H]1/C=C/C[C@H](C)C[S@@](=O)(NC(=O)NC2CC2)=NC(=O)c2ccc3c(c2)N(C[C@@H]2CC[C@H]21)C[C@]1(CO3)C[C@@H]2C[C@@H]2c2cc(Cl)ccc21 [Example 166]	9.77	6.72	–
COc1nn(C)cc1C(=O)N[S@@]1(=O)=NC(=O)c2ccc3c(c2)N(C[C@@H]2CC[C@H]2[C@@H](OC)CC2CC(CCN(C)C)OC2[C@H](C)C1)C[C@@]1(CCCc2cc(Cl)ccc21)CO3 (stereo partly drawn) [Example 143]	10.43	–	7.43
C[C@H]1C/C=C/[C@H](OC(=O)c2cnn(C)c2)[C@@H]2CC[C@H]2CN2C[C@@]3(CCCc4cc(Cl)ccc43)COc3ccc(cc32)C(=O)N=[S@](=O)(NC(=O)c2cnn(C)c2)C1 [Example 51]	9.65	6.36	–
COc1nn(C)cc1C(=O)N[S@@]1(=O)=NC(=O)c2ccc3c(c2)N(C[C@@H]2CC[C@H]2[C@@H]2/C=C/[C@H](OCCCC(=O)O2)[C@H](C)C1)C[C@@]1(CCCc2cc(Cl)ccc21)CO3 [Example 156]	9.41	–	6.43
COc1nn(C)cc1C(=O)N[S@@]1(=O)=NC(=O)c2ccc3c(c2)N(C[C@@H]2CC[C@H]2[C@@H](OC)/C=C/[C@H](OCc2nccn2C)[C@H](C)C1)C[C@@]1(CCCc2cc(Cl)ccc21)CO3 [Example 83]	10.00	7.00	–
COc1nn(C)cc1C(=O)N[S@@]1(=O)=NC(=O)c2ccc3c(c2)N(C[C@@H]2CC[C@H]2[C@H]2OC(=O)C[C@@H]2CC[C@H](C)C1)C[C@@]1(CCCc2cc(Cl)ccc21)CC3 [Example 151]	10.25	6.38	–
CO[C@H]1/C=C/C[C@H](C)[C@@H](C)[S@@](=O)(NC(=O)c2cnn(C)c2)=NC(=O)c2ccc3c(n2)N(C[C@@H]2CC[C@H]21)C[C@@]1(CCCc2cc(Cl)ccc21)CO3 [Example 200]	10.30	7.68	–
COc1nn(C)cc1C(=O)N[S@@]1(=O)=NC(=O)c2ccc3c(c2)N(C[C@@H]2CC[C@H]2[C@](CN2CCN(C4COC4)CC2)(OC)/C=C/C[C@H](C)C1)C[C@@]1(CCCc2cc(Cl)ccc21)CO3 [Example 115]	10.54	7.80	–
COc1nn(C)cc1C(=O)N[S@@]1(=O)=NC(=O)c2ccc3c(c2)N(C[C@@H]2CC[C@H]2[C@@H](OC)[C@H]2CN(C)[C@H]4CO[C@H](C(C)C1)[C@@H]24)C[C@@]1(CCCc2cc(Cl)ccc21)CO3 (stereo partly drawn) [Example 134]	10.16	–	7.00
COc1nn(C)cc1C(=O)N[S@@]1(=O)=NC(=O)c2ccc3c(c2)N(C[C@@H]2CC[C@H]2[C@@H](OCCN2CC(C(F)F)C2)/C=C/C[C@H](C)C1)C[C@@]1(CCCc2cc(Cl)ccc21)CO3 [Example 62]	10.16	7.76	–
COc1nn(C)cc1C(=O)N[S@@]1(=O)=NC(=O)c2ccc3c(c2)N(C[C@@H]2CC[C@H]2[C@@H](OC)/C=C/[C@@H](OC)[C@H](C)[C@H]1C)C[C@@]1(CCCc2cc(Cl)ccc21)CO3 [Example 68]	9.70	–	7.03
CO[C@H]1/C=C/C[C@H](C)[C@@H](C)[S@@](=O)(NC(=O)COC2CCOCC2)=NC(=O)c2ccc3c(n2)N(C[C@@H]2CC[C@H]21)C[C@@]1(CCCc2cc(Cl)ccc21)CO3 [Example 203]	9.92	6.81	–
C[C@H]1C/C=C/[C@H](O)[C@@H]2CC[C@H]2CN2C[C@@]3(CCCc4cc(Cl)ccc43)COc3ccc(cc32)C(=O)N=[S@](=O)(Nc2nc(Cl)nc3nn(C)cc23)C1 [Example 30]	10.52	6.03	–

Structure (SMILES)	pIC50 (MCL1/Bim)	pEC50 (SKBR3 cells; [1])	pEC50 (SKBR3 cells; 72 hours)
COc1nn(C)cc1C(=O)N[S@@]1(=O)=NC(=O)c2ccc3c(c2)N(C[C@@H]2CC[C@H]2[C@@](O)(CC(=O)N2CCOCC2)/C=C/C[C@H](C)C1)C[C@@]1(CCCc2cc(Cl)ccc21)CO3 [Example 99]	10.47	–	7.85
COc1nn(C)cc1C(=O)N[S@@]1(=O)=NC(=O)c2ccc3c(c2)N(C[C@@H]2CC[C@H]2[C@@H](OC)/C=C/[C@H](OCc2cn(C)cn2)[C@H](C)C1)C[C@@]1(CCCc2cc(Cl)ccc21)CO3 [Example 85]	10.07	6.79	–
CO[C@H]1/C=C/C[C@H](C)C[S@@](=O)(NC(=O)c2cnn(C)c2)=NC(=O)c2ccc3c(c2)N(C[C@@H]2CC[C@H]21)C[C@]1(CO3)SCCc2cc(Cl)ccc21 [Example 176]	10.22	7.14	–
COCC#CCO[C@H]1/C=C/[C@H](OC)[C@@H]2CC[C@H]2CN2C[C@@]3(CCCc4cc(Cl)ccc43)COc3ccc(cc32)C(=O)N=[S@](=O)(NC(=O)c2cn(C)nc2OC)C[C@H]1C [Example 75]	9.66	6.77	–
COc1nn(C)cc1C(=O)N[S@@]1(=O)=NC(=O)c2ccc3c(c2)N(C[C@@H]2CC[C@H]2[C@](O)(CC(=O)N2CCN4CCOCC4C2)/C=C/C[C@H](C)C1)C[C@@]1(CCCc2cc(Cl)ccc21)CO3 (stereo partly drawn) [Example 103]	10.13	–	7.46
COc1nn(C)cc1C(=O)N[S@@]1(=O)=NC(=O)c2ccc3c(c2)N(C[C@@H]2CC[C@H]2[C@@](O)(CC(=O)N(C)C)/C=C/C[C@H](C)C1)C[C@@]1(CCCc2cc(Cl)ccc21)CO3 [Example 97]	10.33	–	7.80
COc1nn(C)cc1C(=O)N[S@@]1(=O)=NC(=O)c2ccc3c(c2)N(C[C@@H]2CC[C@H]2[C@@H](OC)C[C@@H]2[C@H](OC[C@H]2C)[C@H](C)C1)C[C@@]1(CCCc2cc(Cl)ccc21)CO3 [Example 145]	9.72	–	6.75
COc1nn(C)cc1C(=O)N[S@@]1(=O)=NC(=O)c2ccc3c(c2)N(C[C@@H]2CC[C@H]2[C@@](O)(C#CCN(C)C)/C=C/C[C@H](C)C1)C[C@@]1(CCCc2cc(Cl)ccc21)CO3 [Example 108]	10.32	–	8.22
C[C@H]1C/C=C/[C@H](O)[C@@H]2CC[C@H]2CN2C[C@@]3(CCCc4cc(Cl)ccc43)COc3ccc(cc32)C(=O)N=[S@](=O)(Nc2ncnc3nn(C)cc23)C1 [Example 29]	10.42	7.82	–
CC[C@H]1C/C=C/[C@H](OC)[C@@H]2CC[C@H]2CN2C[C@@]3(CCCc4cc(Cl)ccc43)COc3ccc(cc32)C(=O)N=[S@@](=O)(NC(=O)c2cnn(C)c2)C1 [Example 43]	8.78	–	5.45
CO[C@H]1/C=C/[C@H](OC)[C@H](C)C[S@@](=O)(NC(=O)c2cn(C)nc2OCCN2CCOCC2)=NC(=O)c2ccc3c(c2)N(C[C@@H]2CC[C@H]21)C[C@@]1(CCCc2cc(Cl)ccc21)CO3 [Example 70]	9.70	–	7.03
COc1nn(C)cc1C(=O)N[S@@]1(=O)=NC(=O)c2ccc3c(c2)N(C[C@@H]2CC[C@H]2[C@@H](OC)/C=C/[C@H](OCc2ncccn2)[C@H](C)C1)C[C@@]1(CCCc2cc(Cl)ccc21)CO3 [Example 74]	10.22	6.73	–
CCCO[C@H]1/C=C/C[C@H](C)C[S@@](=O)(NC(=O)c2cn(C)nc2OC)=NC(=O)c2ccc3c(c2)N(C[C@@H]2CC[C@H]21)C[C@@]1(CCCc2cc(Cl)ccc21)CO3 (mixture of isomers) [Example 137]	8.75	–	6.25
COc1nn(C)cc1C(=O)N[S@@]1(=O)=NC(=O)c2ccc3c(c2)N(C[C@@H]2CC[C@H]2[C@@](CN2CC(OC)C2)(OC)/C=C/C[C@H](C)C1)C[C@@]1(CCCc2cc(Cl)ccc21)CO3 [Example 117]	10.17	7.62	–
CO[C@H]1/C=C/C[C@H](C)C[S@@](=O)(Nc2ncnc3c2cnn3C)=NC(=O)c2ccc3c(c2)N(C[C@@H]2CC[C@H]21)C[C@@]1(CCCc2cc(Cl)ccc21)CO3 [Example 4]	9.71	6.62	–
CCn1cc(C(=O)N[S@@]2(=O)=NC(=O)c3ccc4c(c3)N(C[C@@H]3CC[C@H]3[C@@H](OC)/C=C/C[C@H](C)[C@H]2C)C[C@]2(CO4)C[C@@H]3C[C@@H]3c3cc(Cl)ccc32)cn1 [Example 170]	9.81	6.95	–
CO[C@H]1/C=C/C[C@H](C)C[S@@](=O)(Nc2cncc(C#N)n2)=NC(=O)c2ccc3c(c2)N(C[C@@H]2CC[C@H]21)C[C@@]1(CCCc2cc(Cl)ccc21)CO3 [Example 6]	9.05	5.36	–
CO[C@H]1/C=C/CCC[S@@](=O)(NC(=O)NC2CC2)=NC(=O)c2ccc3c(c2)N(C[C@@H]2CC[C@H]21)C[C@]1(CO3)C[C@@H]2C[C@@H]2c2cc(Cl)ccc21 [Example 175]	9.62	6.20	–
